Data: patent US7205298B2, “Substituted triazine kinase inhibitors” (Janssen Pharmaceutica N.V., priority 2002, dated 2007)
pIC50: −log10 of the molar value.

Key:
CDK1:Cyclin-B = target: T1, CDK1:Cyclin-B (Homo sapiens, UniProt P06493); test: CDK1 Screening Assay; type: biochemical
T1 construct: purchased New England Biolabs 6020; host or cells: insect cells
Description: A kinase reaction mixture was prepared containing 50 mM Tris-HCl pH=8, 10 mM MgCl2, 0.1 mM Na3PO4, 1 mM DTT, 10 μM ATP, 0.025 μM biotinylated histone-H1 peptide substrate (also referred to herein as a CDK-1 peptide substrate, see substrate table) and 0.2 μCuries per well ^33P-γ-ATP (2000–3000 Ci/mmol). 70 μL of the kinase reaction mixture was dispensed into the well of a streptavidin coated FlashPlate™ (Cat. # SMP 103, NEN, Boston, Mass.). Then 1 μL of test compound stock in 100% DMSO was added to the wells resulting in a final concentration of 1% DMSO in the reaction with a 100 μl final reaction volume. Next, CDK1:Cyclin-B protein (New England Biolads, infra) was diluted in 50 mM Tris-HCl pH=8.0, 0.1% BSA at a concentration of 1 ng per μL and 30 μl (30 ng enzyme per test well) was added to each well to initiate the reaction. The reaction was incubated for one hour at 30° C. At the end of the 1-hour incubation, the reaction was terminated by aspirating the reaction mixture from the plate and washing the wells twice with PBS containing 100 mM EDTA. The histone-H1 biotinylated peptide substrate became immobilized on the Flashplate™ (Perkin Elmer, NEN Boston, Mass.) and the incorporation of ^33P-γ-ATP was measured by reading the plate on a scintillation counter. Inhibition of the enzymatic activity of CDK1 was measured by observing a reduced amount of ^33P-γ-ATP incorporated into the immobilized peptide.
Assays to test compound inhibition of other kinases were preformed using methods that measure the amount of phosphorylation of a biotinylated peptide substrate. Biotinylated peptide substrates were selected from the literature as appropriate for the enzyme being evaluated. The general procedure used to assay for kinase activity is as follows: a kinase reaction mix was prepared in 50 mM Tris-HCl pH=8, 10 mM MgCl2, 0.1 mM Na3VO4, 1 mM DTT, 10 μM ATP, 0.25–1 μM biotinylated peptide substrate, 0.2–0.8 μCuries per well ^33P-γ-ATP (2000–3000 Ci/mmol). Assay conditions vary slightly for each protein kinase, for example, insulin receptor kinase requires 10 mM MnCl2 for activity and Calmodulin-dependent protein kinase requires calmodulin and 2 mM CaCl2. The reaction mixture was dispensed into the wells of a streptavidin coated Flashplate and 1 μL test compound in 100% DMSO was added to a 100 μL reaction volume resulting in a final concentration of 1% DMSO in the reaction. Enzyme was diluted in 50 mM Tris-HCl pH=8.0, 0.1% BSA and added to each well. The reaction was incubated for one hour at 30° C. in the presence of a test compound. After one hour the reaction mix was aspirated from the plate and the plate was washed with PBS containing 100 mM EDTA. The plate was read on a scintillation counter to determine ^33P-γ-ATP incorporated into the immobilized peptide substrate. Test compounds were assayed in duplicate at 8 concentrations (100 μM, 10 μM, 1 μM, 100 nM, 10 nM, 1 nM, 100 pM, 10 pM). A maximum and minimum signal for the assay was determined on each plate. […] Known inhibitor compounds appropriate for the kinase being assayed were also included on each plate.
The form of VEGF-R (vascular endothelial growth factor receptor-2) used was a fusion protein containing a polyhistidine tag at the N-terminus followed by amino acids 786–1343 of the rat VEGF-R2 kinase domain (GenBank Accession #U93306). The form of CDK1 (cyclin dependent kinase 1) used was isolated from insect cells expressing both the human CDK1 catalytic subunit and its positive regulatory subunit cyclin B (CDK1:cyclin B protein, New England Biolabs, Beverly, Mass., Cat. #6020). The form of CDK4 (cyclin dependent kinase 4) used contains amino acids 769 to 921 of the mouse […] protein found in the GST-retinoblastoma protein construct (Santa Cruz Biotechnology, Santa Cruz, Calif.; Cat. #SC-4112). The form of EGF-R1 (epidermal growth factor receptor 1) used was purified from human A431 cell membranes (Sigma, St. Louis, Mo., Cat.# E3641). […]

[1] = tested on: HeLa cervical adenocarcinoma; test: Inhibition of cell proliferation, 14C-thymidine incorporation, HeLa; type: cell-based; details: Homo sapiens
Description: The ability of a test compound to inhibit the proliferation of cell growth was determined by measuring incorporation of ^14C-labelled thymidine into newly synthesized DNA within the cells. This method was used on cell lines derived from carcinomas originating from several tissues such as HeLa cervical adenocarcinoma (American Type Culture Collection (ATCC), Virginia, Cat. #CCL-2), HCT-116 colon carcinoma (CCL-247), MDA-MB-231 (Xenogen Corp.), PC-3 prostate adenocarcinoma (ATCC CRL-1435) and A375 malignant melanoma (ATCC CRL-1619).
Using this method, the effect of a compound on cell growth of cells with many different phenotypes can be determined. Cells were trypsinized and counted and 3000–8000 cells were added to each well of a 96-well CytoStar tissue culture treated scintillating microplate (Amersham #RPNQ0160) in complete medium in a volume of 100 μl. Cells were incubated for 24 hours in complete medium at 37° C. in an atmosphere containing 5% CO2. 1 μL of test compound in 100% DMSO was then added to the wells of the plate. DMSO only was added to control wells. Cells were incubated for 24 more hours in complete medium at 37° C. in an atmosphere containing 5% CO2. […] The degree of methyl ^14C-thymidine incorporation was quantified on a Packard Top Count.

T1 sequence (P06493 whole entry): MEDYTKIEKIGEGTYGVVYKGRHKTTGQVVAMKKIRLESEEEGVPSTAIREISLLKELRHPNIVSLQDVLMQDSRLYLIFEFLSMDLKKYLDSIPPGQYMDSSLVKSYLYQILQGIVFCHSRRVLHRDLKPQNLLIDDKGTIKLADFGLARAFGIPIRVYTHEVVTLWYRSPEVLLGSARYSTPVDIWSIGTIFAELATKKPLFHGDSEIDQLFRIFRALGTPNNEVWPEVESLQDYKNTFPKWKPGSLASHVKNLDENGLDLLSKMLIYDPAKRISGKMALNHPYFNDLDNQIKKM
T1 sequence (P14635 whole entry partner): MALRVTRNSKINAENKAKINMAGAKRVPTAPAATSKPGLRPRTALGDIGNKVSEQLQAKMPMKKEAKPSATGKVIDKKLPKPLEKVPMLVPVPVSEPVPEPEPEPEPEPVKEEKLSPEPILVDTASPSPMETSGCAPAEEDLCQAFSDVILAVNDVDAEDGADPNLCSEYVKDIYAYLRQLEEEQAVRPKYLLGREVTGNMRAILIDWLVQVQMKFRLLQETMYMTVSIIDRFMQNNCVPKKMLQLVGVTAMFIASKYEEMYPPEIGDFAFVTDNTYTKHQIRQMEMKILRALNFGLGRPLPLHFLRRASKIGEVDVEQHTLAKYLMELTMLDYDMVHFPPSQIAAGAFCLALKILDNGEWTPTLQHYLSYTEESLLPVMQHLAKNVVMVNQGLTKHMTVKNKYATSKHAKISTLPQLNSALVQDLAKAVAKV

Compound	pIC50 (CDK1:Cyclin-B)	pIC50 [1]
OCCCNc1cncc(-c2ncnc(Nc3cccc(Cl)c3)n2)c1 [Compound 1, 3-((5-(4-((3-chlorophenyl)amino)-1,3,5-triazin-2-yl)-3-pyridinyl)amino)-1-propanol]	7.41	6.53
OCCCNc1cc(-c2ncnc(Nc3cccc(Cl)c3)n2)ccn1 [Compound 2, 3-((4-(4-((3-chlorophenyl)amino)-1,3,5-triazin-2-yl)-2-pyridinyl)amino)-1-propanol]	7.80	6.98
